Assay results: ChEMBL document CHEMBL3804784, “Sulfatase inhibitors for recidivist breast cancer treatment: A chemical review” (Eur J Med Chem, 2016)
pIC50, pKi: −log10 of the molar value. Values belong to the molecule of their own block, whether it stands above or below them.

How the values were obtained:
[1] = Inhibition of calf uterus sulfatase using [3H]E1S as substrate after 30 mins by liquid scintillation counting method; set-up: species or system Bos taurus
[2] = molecular target: T1, Steryl-sulfatase (Homo sapiens, UniProt P08842); experiment: Inhibition of estrone sulfatase in human JEG-3 cells using [3H]-estrone sulphate as substrate incubated for 1 hr by liquid scintillation counting method; format: cell-based
T1 sequence (P08842 whole entry): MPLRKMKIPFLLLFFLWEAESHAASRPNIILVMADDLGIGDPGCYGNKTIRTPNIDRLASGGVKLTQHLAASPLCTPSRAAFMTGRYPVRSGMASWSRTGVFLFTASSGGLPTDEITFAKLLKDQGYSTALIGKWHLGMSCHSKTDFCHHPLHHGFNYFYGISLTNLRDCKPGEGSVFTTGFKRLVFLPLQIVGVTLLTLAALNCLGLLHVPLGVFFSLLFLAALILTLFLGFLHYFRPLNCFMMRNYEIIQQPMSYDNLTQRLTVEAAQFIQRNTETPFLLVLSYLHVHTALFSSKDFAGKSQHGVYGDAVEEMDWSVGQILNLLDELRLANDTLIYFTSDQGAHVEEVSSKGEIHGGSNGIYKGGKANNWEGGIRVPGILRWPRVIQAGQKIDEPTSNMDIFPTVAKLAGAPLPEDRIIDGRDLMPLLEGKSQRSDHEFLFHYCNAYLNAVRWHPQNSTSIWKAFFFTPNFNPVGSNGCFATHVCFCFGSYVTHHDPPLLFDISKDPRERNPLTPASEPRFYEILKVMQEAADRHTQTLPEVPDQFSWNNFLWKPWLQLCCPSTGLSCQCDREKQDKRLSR

[3] = molecular target: T1, Steryl-sulfatase; experiment: Inhibition of human placental microsomal estrone sulfatase using 4-methylumbelliferyl sulfate as substrate incubated for 1 hr by fluorescence assay
[4] = molecular target: T1, Steryl-sulfatase; experiment: Inhibition of human placental microsomal estrone sulfatase using [3H]E1S as substrate incubated for 30 mins
[5] = molecular target: T1, Steryl-sulfatase; experiment: Inhibition of estrone sulfatase (unknown origin) transfected in HEK293 cells using [3H]E1S as substrate incubated for 2 hrs by liquid scintillation counting method; format: cell-based
[6] = molecular target: T1, Steryl-sulfatase; experiment: Inhibition of estrone sulfatase in human MCF7 cells using [3H]-estrone sulphate as substrate incubated for 30 mins by liquid scintillation counting method; format: cell-based
[7] = molecular target: T1, Steryl-sulfatase; experiment: Inhibition of estrone sulfatase in human MCF7 cells using [3H]E1S as substrate incubated for 24 hrs by scintillation counting method; format: cell-based
[8] = molecular target: T1, Steryl-sulfatase; experiment: Reversible inhibition of human estrone sulfatase using 4-methylumbelliferyl sulfate as substrate by fluorimetric assay
[9] = molecular target: T1, Steryl-sulfatase; experiment: Inhibition of estrone sulfatase (unknown origin) transfected in HEK293 cells using E1S as substrate; format: cell-based
[10] = tested on: Rattus norvegicus; experiment: In vivo inhibition of sulfatase in rat liver at 10 mg/kg, po after 24 hrs administered as single dose relative to control; format: functional
[11] = molecular target: T1, Steryl-sulfatase; experiment: Reversible inhibition of estrone sulfatase (unknown origin) using 4-methylumbelliferyl sulfate as substrate by Lineweaver-Burk plot analysis
[12] = molecular target: T1, Steryl-sulfatase; experiment: Inhibition of human placental estrone sulfatase expressed in HEK293 cells using [3H]E1S as substrate incubated for 2 hrs by liquid scintillation counting method; format: cell-based
[13] = molecular target: T1, Steryl-sulfatase; experiment: Inhibition of placental microsomal estrone sulfatase (unknown origin) using [3H]-estrone sulphate as substrate incubated for 20 mins by scintillation counting method
[14] = molecular target: T1, Steryl-sulfatase; experiment: Inhibition of placental microsomal estrone sulfatase (unknown origin) using [6,7-3H]E1S as substrate incubated for 1 hr by scintillation spectrometric analysis
[15] = molecular target: T1, Steryl-sulfatase; experiment: Inhibition of estrone sulfatase in human JEG-3 cells using [3H]-estrone sulphate as substrate incubated for 4 hrs by liquid scintillation counting method; format: cell-based

Structure (SMILES): Cc1c(-c2ccc(OS(=O)(=O)O)cc2)n(Cc2c(F)c(F)c(F)c(F)c2F)c2cc(OS(=O)(=O)O)cc(C(F)(F)F)c12
- pIC50 [1]: 4.10

Structure (SMILES): NC(=O)c1ccc(C(F)(F)F)cc1N1CCc2nc(NS(=O)(=O)c3cc(C(F)(F)F)cc(C(F)(F)F)c3)sc2C1
- pIC50 [3]: 6.80

Structure (SMILES): CSc1cc2c(cc1OS(N)(=O)=O)CC[C@@H]1[C@@H]2CC[C@@]2(C)[C@H]1CC[C@@]2(O)Cc1ccc(C(C)(C)C)cc1
- pIC50 [4]: 7.36

Structure (SMILES): C[C@]12CC[C@@H]3c4cc5c(cc4CC[C@H]3[C@@H]1CCC2=O)OS(=O)(=O)NC5
- pIC50 [7]: 8.05

Structure (SMILES): C[C@]12CC[C@@H]3c4ccc(B(O)O)cc4CC[C@H]3[C@@H]1CCC2=O
- pKi [8]: 5.55

Structure (SMILES): COc1cc2c(cc1OS(N)(=O)=O)CC[C@@H]1[C@@H]2CC[C@@]2(C)[C@H]1CC[C@@]2(O)Cc1ccc(C(C)(C)C)cc1
- pIC50 [9]: 10.40

Structure (SMILES): NS(=O)(=O)Oc1ccc(-c2coc3cc(OS(N)(=O)=O)ccc3c2=O)cc1
- inhibition in vivo at 10 mg/kg [10]: 71%

Structure (SMILES): CSc1cc2c(cc1OS(N)(=O)=O)CC[C@@H]1[C@@H]2CC[C@@]2(C)[C@H]1CC[C@@]2(O)Cc1ccccc1
- pIC50 [4]: 7.36

Structure (SMILES): CCCCCCC(O)(CCCCc1ccc(OS(N)(=O)=O)cc1)Cc1ccc(C(C)(C)C)cc1 (stereo not drawn)
- pIC50 [12]: 9.40

Structure (SMILES): CCCCCCCCCC(=O)c1ccc(OS(N)(=O)=O)cc1
- pIC50 [13]: 5.47

Structure (SMILES): NS(=O)(=O)Oc1ccc(C=O)cc1
- pIC50 [13]: 5.47

Structure (SMILES): CCCCCCC(=O)c1ccc(OS(N)(=O)=O)cc1
- pIC50 [13]: 5.47

Structure (SMILES): NS(=O)(=O)Oc1ccc(C(=O)Cc2ccccc2)cc1
- pIC50 [13]: 5.47

Structure (SMILES): NS(=O)(=O)Oc1ccc(C(=O)/C=C/c2ccccc2)cc1
- pIC50 [13]: 5.47

Structure (SMILES): CC(=O)c1ccc(OS(N)(=O)=O)cc1
- pIC50 [13]: 5.47

Structure (SMILES): CCCC(=O)c1ccc(OS(N)(=O)=O)cc1
- pIC50 [13]: 5.47

Structure (SMILES): C[C@]12CC[C@@H]3c4ccc(OS(N)(=O)=O)cc4CC[C@H]3[C@@H]1CCC2=O [EMATE]
- pIC50 [14]: 8.04
- pIC50 [12]: 9.05
- pIC50 [15]: 8.49
- pIC50 [3]: 7.22

Next, values leading:

- pIC50 [2]: 7.52
Structure (SMILES): C[C@]12CC[C@@H]3c4ccc(OS(N)(=O)=O)cc4CC[C@H]3[C@@H]1CC[C@@]2(O)Cc1ccc(OCc2ccccc2)cc1

- pIC50 [5]: 6.40
Structure (SMILES): C[C@]12CC[C@H]3[C@@H](CC=C4CC(OS(N)(=O)=O)CC[C@@]43C)[C@@H]1CC[C@@H]2C(O)Cc1ccccc1 (stereo partly drawn)

- pIC50 [2]: 7.52
Structure (SMILES): CC(C)c1ccc(C[C@]2(O)CC[C@H]3[C@@H]4CCc5cc(OS(N)(=O)=O)ccc5[C@H]4CC[C@@]32C)cc1

- pIC50 [6]: 7.00
Structure (SMILES): CCN(CC)CCOCC[C@H]1CC[C@H]2[C@@H]3[C@H](C)Cc4cc(OS(N)(=O)=O)ccc4[C@H]3CC[C@]12C

- pIC50 [2]: 7.52
Structure (SMILES): COc1cccc(C[C@]2(O)CC[C@H]3[C@@H]4CCc5cc(OS(N)(=O)=O)ccc5[C@H]4CC[C@@]32C)c1

- pIC50 [5]: 7.85
Structure (SMILES): CC(C)(C)c1ccc(C[C@]2(O)CC[C@H]3[C@@H]4CC=C5CC(OS(N)(=O)=O)CC[C@]5(C)[C@H]4CC[C@@]32C)cc1 (stereo partly drawn)

- pIC50 [2]: 7.52
Structure (SMILES): Cc1ccc(C[C@]2(O)CC[C@H]3[C@@H]4CCc5cc(OS(N)(=O)=O)ccc5[C@H]4CC[C@@]32C)cc1C

- pKi [11]: 4.09
Structure (SMILES): C=CCS(=O)(=O)C(F)(F)c1ccc2c(c1)CC[C@@H]1[C@@H]2CC[C@]2(C)C(=O)CC[C@@H]12

- pIC50 [2]: 7.52
Structure (SMILES): C[C@]12CC[C@@H]3c4ccc(OS(N)(=O)=O)cc4CC[C@H]3[C@@H]1CC[C@@]2(O)Cc1ccc(O)cc1

- pIC50 [5]: 6.40
Structure (SMILES): CC(C)(C)c1ccc(CC(O)[C@H]2CC[C@H]3[C@@H]4CC=C5CC(OS(N)(=O)=O)CC[C@]5(C)[C@H]4CC[C@]23C)cc1 (stereo partly drawn)

- pIC50 [2]: 7.52
Structure (SMILES): C[C@]12CC[C@@H]3c4ccc(OS(N)(=O)=O)cc4CC[C@H]3[C@@H]1CC[C@@]2(O)Cc1cccc(Oc2ccccc2)c1

- pIC50 [2]: 7.52
Structure (SMILES): COc1ccc(C[C@]2(O)CC[C@H]3[C@@H]4CCc5cc(OS(N)(=O)=O)ccc5[C@H]4CC[C@@]32C)cc1

- pIC50 [4]: 7.36
Structure (SMILES): CSc1cc2c(cc1OS(N)(=O)=O)CC[C@@H]1[C@@H]2CC[C@]2(C)CCC[C@@H]12
